# Like-named read-outs stand apart in the source and are kept apart here.
# Legend:
# HER2 S310F = biological target: T1, HER2 S310F (Homo sapiens, UniProt P04626, S310F); assay: Assay for cell proliferation (BaF3 transformants, CellTiterGlo), Activity for Inhibiting HER2; assay type: cell-based; settings: potency code, 3 days drug
# T1 construct: expressed in transfected cells; host or cells: BaF3 (murine pro-B) transformants
# EGFR WT = biological target: T2, EGFR WT (Homo sapiens, UniProt P00533); assay: Assay for cell proliferation (CellTiterGlo), Activity for Inhibiting EGFR; assay type: cell-based; settings: potency code, 3 days drug
# T2 construct: endogenous in cells; host or cells: A431 (+H292)
# EGFR V3 (EGFR-Viii) = biological target: T3, EGFR V3 (EGFR-Viii) (Homo sapiens, UniProt P00533, DELINS30-297G); assay: Assay for cell proliferation (BaF3 transformants, CellTiterGlo), Activity for Inhibiting EGFR; assay type: cell-based; settings: potency code, 3 days drug
# T3 construct: expressed in transfected cells; host or cells: BaF3 (murine pro-B), retroviral pMXs-IRES-Blasticidin, selected for IL-3 independence
# Method: (§1) Retroviral Production: EGFR mutants were subcloned into pMXs-IRES-Blasticidin (RTV-016, Cell Biolabs, San Diego, Calif.). Retroviral expression vector retrovirus was produced by transient transfection of HEK 293T cells with the retroviral EGFR mutant expression vector pMXs-IRES-Blasticidin (RTV-016, Cell Biolabs), pCMV-Gag-Pol vector and pCMV-VSV-G-Envelope vector. HEK 293T/17 cells were plated in 100 mm collagen coated plate (354450, Corning Life Sciences, Tewksbury, Mass.) (4×10^5 per plate) and incubated overnight. The next day, retroviral plasmids (3 μg of EGFR mutant, 1.0 μg of pCMV-Gag-Pol and 0.5 μg pCMV-VSV-G) were mixed in 500 μl of Optimem (31985, Life Technologies). The mixture was incubated at room temperature for 5 min and then added to Optimem containing transfection reagent Lipofectamine (11668, Invitrogen) and incubated for 20 minutes. Mixture was then added dropwise to HEK 293T cells. The next day the medium was replaced with fresh culture medium and retrovirus was harvested @ 24 and 48 hrs. Generation of EGFR mutant stable cell lines: BaF3 cells (1.5E5 cells) were infected with 1 ml of viral supernatant supplemented with 8 μg/ml polybrene by centrifuging for 30 min at 1000 rpm. Cells were placed in a 37° C. incubator overnight. Cells were then spun for 5 minutes to pellet the cells. Supernatant was removed and cells re-infected a fresh 1 ml of viral supernatant supplemented with 8 μg/ml polybrene by centrifuging for 30 min at 1000 rpm. Cells were placed in 37° C. incubator overnight. […] After 48 hours cells were selected for retroviral infection in 10 μg/ml Blasticidin for one week. Blasticidin resistant populations were washed twice in phosphate buffered saline before plating in media lacking IL-3 to select for IL-3 independent growth.
# as §1, with “fresh 1 m1 of viral” for “fresh 1 ml of viral”
# HER2 WT = biological target: T4, HER2 WT (Homo sapiens, UniProt P04626); assay: Assay for cell proliferation (CellTiterGlo), Activity for Inhibiting HER2; assay type: cell-based
# T4 construct: endogenous in cells; host or cells: BT474
# [1] = test system: covalently-activated EGFR variants (EGFR-Viii, EGFR-Vii, EGFR-Vvi, EGFR-A289V); assay: Western blot under non-reducing conditions: monomeric versus covalently dimerized and phosphorylated EGFR; assay type: cell-based, Homo sapiens
# HER2 YVMA = biological target: T5, HER2 YVMA (Homo sapiens, UniProt P04626, INS775YVMA); assay: Assay for cell proliferation (BaF3 transformants, CellTiterGlo), Activity for Inhibiting HER2; assay type: cell-based; settings: potency code, 3 days drug
# T5 construct: expressed in transfected cells; host or cells: BaF3 (murine pro-B) transformants
# EGFR SVD = biological target: T6, EGFR SVD (Homo sapiens, UniProt P00533, INS770SVD); assay: Assay for cell proliferation (BaF3 transformants, CellTiterGlo), Activity for Inhibiting EGFR; assay type: cell-based; settings: potency code, 3 days drug
# T6 construct: expressed in transfected cells; host or cells: BaF3 (murine pro-B), retroviral pMXs-IRES-Blasticidin, selected for IL-3 independence
# Method: as §1
# as §1, with “fresh 1 m1 of viral” for “fresh 1 ml of viral”
# EGFR NPH = biological target: T7, EGFR NPH (Homo sapiens, UniProt P00533, INS773NPH); assay: as above; assay type: cell-based; settings: potency code, 3 days drug
# T7 construct: expressed in transfected cells; host or cells: BaF3 (murine pro-B), retroviral pMXs-IRES-Blasticidin, selected for IL-3 independence
# Method: as §1
# as §1, with “fresh 1 m1 of viral” for “fresh 1 ml of viral”
# [2] = 'about ... or less', read-out: IC50 value for inhibiting wild-type HER2
# [3] = Table B (Example 2), potency code, 3 days drug, read-out: HER2 WT
# [4] = Table B, potency code, 3 days drug, read-out: HER2 WT
# [5] = covalent dimers of covalently-activated EGFR variants, cells expressing EGFR-Vii and EGFR-A289V (FIG. 8)
# T5 sequence (P04626 with tags, fused parts or gaps INS775YVMA): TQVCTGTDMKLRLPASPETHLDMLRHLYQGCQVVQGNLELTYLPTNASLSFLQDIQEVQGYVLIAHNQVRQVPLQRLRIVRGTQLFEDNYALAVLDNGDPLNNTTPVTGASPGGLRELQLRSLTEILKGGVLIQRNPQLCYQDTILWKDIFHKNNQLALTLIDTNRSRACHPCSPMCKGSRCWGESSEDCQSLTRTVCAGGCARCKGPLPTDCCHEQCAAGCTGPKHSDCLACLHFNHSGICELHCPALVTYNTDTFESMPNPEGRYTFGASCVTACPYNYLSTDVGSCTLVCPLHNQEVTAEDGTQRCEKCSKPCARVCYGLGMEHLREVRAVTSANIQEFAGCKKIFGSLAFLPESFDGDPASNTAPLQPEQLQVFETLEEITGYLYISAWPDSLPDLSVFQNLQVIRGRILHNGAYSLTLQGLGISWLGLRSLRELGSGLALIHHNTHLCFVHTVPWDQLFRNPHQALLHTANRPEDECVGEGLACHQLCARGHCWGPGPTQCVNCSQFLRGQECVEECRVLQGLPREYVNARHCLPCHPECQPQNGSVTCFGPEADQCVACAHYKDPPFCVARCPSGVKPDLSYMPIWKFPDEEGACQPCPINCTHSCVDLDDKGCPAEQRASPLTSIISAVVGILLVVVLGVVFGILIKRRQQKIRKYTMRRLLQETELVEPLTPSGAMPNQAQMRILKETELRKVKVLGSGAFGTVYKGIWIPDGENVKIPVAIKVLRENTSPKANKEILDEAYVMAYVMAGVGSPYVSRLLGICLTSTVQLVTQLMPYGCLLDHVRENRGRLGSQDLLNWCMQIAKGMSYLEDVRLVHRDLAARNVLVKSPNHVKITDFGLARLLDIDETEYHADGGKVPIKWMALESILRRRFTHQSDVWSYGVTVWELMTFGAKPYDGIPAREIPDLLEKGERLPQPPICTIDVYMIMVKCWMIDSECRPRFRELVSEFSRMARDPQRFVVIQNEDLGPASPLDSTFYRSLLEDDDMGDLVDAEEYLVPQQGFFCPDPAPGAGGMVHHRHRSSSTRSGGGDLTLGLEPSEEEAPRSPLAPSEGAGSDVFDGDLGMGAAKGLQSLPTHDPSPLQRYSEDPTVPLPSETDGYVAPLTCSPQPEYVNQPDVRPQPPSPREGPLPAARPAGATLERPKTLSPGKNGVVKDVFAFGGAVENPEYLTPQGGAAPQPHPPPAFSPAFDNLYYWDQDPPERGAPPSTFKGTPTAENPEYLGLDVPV
# T3 sequence (P00533 with tags, fused parts or gaps DELINS30-297G): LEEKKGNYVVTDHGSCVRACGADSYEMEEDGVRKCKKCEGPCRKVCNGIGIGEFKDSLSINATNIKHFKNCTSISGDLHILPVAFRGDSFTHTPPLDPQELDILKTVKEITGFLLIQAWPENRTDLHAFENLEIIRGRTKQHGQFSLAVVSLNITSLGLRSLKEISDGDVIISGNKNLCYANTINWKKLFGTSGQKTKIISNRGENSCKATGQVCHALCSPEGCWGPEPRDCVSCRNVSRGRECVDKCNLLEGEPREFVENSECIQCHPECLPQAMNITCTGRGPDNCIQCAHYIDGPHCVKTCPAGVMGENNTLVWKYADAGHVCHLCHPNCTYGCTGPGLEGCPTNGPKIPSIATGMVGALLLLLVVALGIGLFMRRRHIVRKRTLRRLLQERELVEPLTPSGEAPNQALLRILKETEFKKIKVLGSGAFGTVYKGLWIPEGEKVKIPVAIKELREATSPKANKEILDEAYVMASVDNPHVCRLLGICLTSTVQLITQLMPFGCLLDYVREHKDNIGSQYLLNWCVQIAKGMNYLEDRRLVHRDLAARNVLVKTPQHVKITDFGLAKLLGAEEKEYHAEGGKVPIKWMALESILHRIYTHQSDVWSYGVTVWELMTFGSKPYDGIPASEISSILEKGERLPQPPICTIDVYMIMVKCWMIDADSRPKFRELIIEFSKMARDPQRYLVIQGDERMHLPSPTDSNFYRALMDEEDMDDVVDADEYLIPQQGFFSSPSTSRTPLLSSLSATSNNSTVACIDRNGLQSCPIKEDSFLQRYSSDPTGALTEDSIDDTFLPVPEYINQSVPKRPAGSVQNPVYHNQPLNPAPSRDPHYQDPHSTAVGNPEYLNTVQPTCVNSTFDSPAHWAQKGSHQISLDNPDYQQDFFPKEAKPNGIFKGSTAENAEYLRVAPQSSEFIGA
# T4 sequence (P04626 23-1255): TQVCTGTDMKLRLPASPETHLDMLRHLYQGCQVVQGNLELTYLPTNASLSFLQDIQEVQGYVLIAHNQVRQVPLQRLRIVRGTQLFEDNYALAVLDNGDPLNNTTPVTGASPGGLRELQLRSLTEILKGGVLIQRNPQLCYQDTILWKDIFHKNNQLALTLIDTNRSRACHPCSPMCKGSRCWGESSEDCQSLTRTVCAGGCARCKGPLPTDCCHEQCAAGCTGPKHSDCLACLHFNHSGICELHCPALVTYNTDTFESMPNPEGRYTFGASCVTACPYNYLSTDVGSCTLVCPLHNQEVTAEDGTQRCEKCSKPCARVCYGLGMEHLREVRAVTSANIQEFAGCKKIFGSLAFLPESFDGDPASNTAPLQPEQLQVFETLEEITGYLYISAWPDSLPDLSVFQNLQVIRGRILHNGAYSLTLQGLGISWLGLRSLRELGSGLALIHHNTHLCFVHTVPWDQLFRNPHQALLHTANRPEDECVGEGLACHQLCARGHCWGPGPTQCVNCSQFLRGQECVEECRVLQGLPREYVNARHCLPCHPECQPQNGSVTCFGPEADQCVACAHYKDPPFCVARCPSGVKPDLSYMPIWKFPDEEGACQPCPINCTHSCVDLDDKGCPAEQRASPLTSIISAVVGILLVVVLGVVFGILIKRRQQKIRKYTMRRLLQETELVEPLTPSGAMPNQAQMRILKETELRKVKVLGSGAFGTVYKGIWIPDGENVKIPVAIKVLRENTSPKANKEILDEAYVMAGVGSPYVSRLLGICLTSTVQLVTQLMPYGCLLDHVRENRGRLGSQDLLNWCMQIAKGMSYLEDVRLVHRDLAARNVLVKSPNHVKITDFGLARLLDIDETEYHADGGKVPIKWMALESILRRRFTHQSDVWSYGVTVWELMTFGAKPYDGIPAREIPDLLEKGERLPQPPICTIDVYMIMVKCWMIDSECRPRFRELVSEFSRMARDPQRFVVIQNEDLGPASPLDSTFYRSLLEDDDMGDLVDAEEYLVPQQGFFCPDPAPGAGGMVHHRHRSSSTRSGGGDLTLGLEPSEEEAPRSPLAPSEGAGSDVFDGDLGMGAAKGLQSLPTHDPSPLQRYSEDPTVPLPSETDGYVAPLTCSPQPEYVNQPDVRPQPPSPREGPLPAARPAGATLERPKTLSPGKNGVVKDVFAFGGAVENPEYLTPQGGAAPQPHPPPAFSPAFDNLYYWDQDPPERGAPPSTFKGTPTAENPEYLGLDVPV
# T6 sequence (P00533 with tags, fused parts or gaps INS770SVD): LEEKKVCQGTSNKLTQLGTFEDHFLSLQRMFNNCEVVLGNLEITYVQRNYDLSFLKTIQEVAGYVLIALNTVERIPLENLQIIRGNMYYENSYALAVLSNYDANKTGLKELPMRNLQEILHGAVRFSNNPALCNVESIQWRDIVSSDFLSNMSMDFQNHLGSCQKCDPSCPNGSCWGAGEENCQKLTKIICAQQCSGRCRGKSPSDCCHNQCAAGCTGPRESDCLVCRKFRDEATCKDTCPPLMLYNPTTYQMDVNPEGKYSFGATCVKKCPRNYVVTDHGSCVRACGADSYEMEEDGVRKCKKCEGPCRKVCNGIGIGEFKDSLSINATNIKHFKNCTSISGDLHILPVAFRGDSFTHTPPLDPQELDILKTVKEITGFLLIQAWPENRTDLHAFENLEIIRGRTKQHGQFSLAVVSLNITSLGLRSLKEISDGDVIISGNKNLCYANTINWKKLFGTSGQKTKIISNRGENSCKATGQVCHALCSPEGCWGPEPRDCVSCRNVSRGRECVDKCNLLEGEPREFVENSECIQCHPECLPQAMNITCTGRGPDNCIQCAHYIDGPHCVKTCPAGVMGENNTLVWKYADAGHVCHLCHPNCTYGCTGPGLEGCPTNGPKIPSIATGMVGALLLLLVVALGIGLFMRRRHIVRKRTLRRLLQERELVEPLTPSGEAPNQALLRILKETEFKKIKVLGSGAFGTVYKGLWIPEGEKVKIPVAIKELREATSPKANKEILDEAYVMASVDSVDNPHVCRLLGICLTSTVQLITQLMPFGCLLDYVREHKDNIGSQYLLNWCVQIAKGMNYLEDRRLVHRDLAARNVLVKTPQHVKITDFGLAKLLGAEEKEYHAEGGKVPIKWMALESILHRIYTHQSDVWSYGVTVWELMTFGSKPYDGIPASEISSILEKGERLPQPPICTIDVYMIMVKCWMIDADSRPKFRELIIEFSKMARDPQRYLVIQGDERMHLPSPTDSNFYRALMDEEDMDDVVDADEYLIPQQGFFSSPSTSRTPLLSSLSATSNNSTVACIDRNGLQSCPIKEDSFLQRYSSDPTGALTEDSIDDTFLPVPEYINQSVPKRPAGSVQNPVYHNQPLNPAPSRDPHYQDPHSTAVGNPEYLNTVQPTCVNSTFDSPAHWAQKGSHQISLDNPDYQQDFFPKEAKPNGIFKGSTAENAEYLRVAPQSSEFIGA
Compound,IC50 (HER2 S310F; Table B (Example 2)) [µM],IC50 (HER2 S310F; Table B) [µM],IC50 (EGFR WT; Table A (Example 2)) [µM],IC50 (EGFR WT; Table A) [µM],IC50 (EGFR V3 (EGFR-Viii); Table A (Example 2)) [µM],IC50 (EGFR V3 (EGFR-Viii); Table A) [µM],IC50 (HER2 WT; [2]) [µM],IC50 (HER2 WT; [3]) [µM],IC50 (HER2 WT; [4]) [µM],IC50 (HER2 YVMA; Table B (Example 2)) [µM],IC50 (HER2 YVMA; Table B) [µM],IC50 (EGFR SVD; Table A (Example 2)) [µM],IC50 (EGFR SVD; Table A) [µM],IC50 (EGFR NPH; Table A (Example 2)) [µM],IC50 (EGFR NPH; Table A) [µM],Induced dimers [1],"Induced dimers [1, 5]"
C=CC(=O)Nc1cccc(Nc2nc(Nc3ccc(N4CCN(C(C)=O)CC4)cc3OC)ncc2C(F)(F)F)c1 [CO-1686],,,,,,,,,,,,,,,,Yes,
"COc1cc2ncnc(Nc3ccc(F)c(Cl)c3)c2cc1NC(=O)/C=C/CN1CCCCC1 [Dacomitinib, dacomitinib]",,,,,,,,,,,,,,,,,Yes
C=CC(=O)Nc1cc2c(Nc3ccc4c(cnn4Cc4cccc(F)c4)c3)ncnc2cc1N(C)CCN(C)C [compound 1],0.1 to 0.2,0.1 to 0.2,0.5 to 1,0.5 to 1,0.05 to 0.1,0.05 to 0.1,,0.02 to 0.03,0.02 to 0.03,,,,,,,,
CCOc1cc2ncc(C#N)c(Nc3ccc(OCc4cccc(F)c4)c(Cl)c3)c2cc1NC(=O)/C=C/CN(C)C [HKI-357],,,,,,,,,,,,,,,,,No
"CCOc1cc2ncc(C#N)c(Nc3ccc(F)c(Cl)c3)c2cc1NC(=O)/C=C/CN(C)C [Pelitinib, pelitinib]",,,,,,,,,,,,,,,,Yes,
C=CC(=O)Nc1ccc2ncnc(Nc3ccc(OCc4cccc(F)c4)c(Cl)c3)c2c1 [AST-1306],,,,,,,,,,,,,,,,,No

# Further lines, with some results ahead:
IC50 (HER2 S310F; Table B (Example 2)) [µM],IC50 (HER2 S310F; Table B) [µM],IC50 (EGFR WT; Table A (Example 2)) [µM],IC50 (EGFR WT; Table A) [µM],IC50 (EGFR V3 (EGFR-Viii); Table A (Example 2)) [µM],IC50 (EGFR V3 (EGFR-Viii); Table A) [µM],IC50 (HER2 WT; [2]) [µM],IC50 (HER2 WT; [3]) [µM],IC50 (HER2 WT; [4]) [µM],IC50 (HER2 YVMA; Table B (Example 2)) [µM],IC50 (HER2 YVMA; Table B) [µM],IC50 (EGFR SVD; Table A (Example 2)) [µM],IC50 (EGFR SVD; Table A) [µM],IC50 (EGFR NPH; Table A (Example 2)) [µM],IC50 (EGFR NPH; Table A) [µM],Compound,Induced dimers [1],"Induced dimers [1, 5]"
0.1 to 0.2,0.1 to 0.2,0.3 to 0.5,0.3 to 0.5,0.1 to 0.2,0.1 to 0.2,≤ 0.02,0.01 to 0.02,0.01 to 0.02,,,,,,,C=CC(=O)Nc1cc2c(Nc3ccc4c(cnn4Cc4cccc(F)c4)c3)ncnc2cc1N(C)CCCN1CC2CC1CO2 (stereo not drawn) [compound 7],,
0.1 to 0.2,0.1 to 0.2,0.2 to 0.3,0.2 to 0.3,0.1 to 0.2,0.1 to 0.2,≤ 0.01,0.005 to 0.01,0.005 to 0.01,,,,,,,C=CC(=O)Nc1cc2c(Nc3ccc4c(cnn4Cc4cccc(F)c4)c3)ncnc2cc1NCCN1CCOCC1 [compound 5],,
0.01 to 0.02,0.01 to 0.02,0.1 to 0.2,0.1 to 0.2,0.02 to 0.03,0.02 to 0.03,≤ 0.01,0.005 to 0.01,0.005 to 0.01,0.1 to 0.2,0.1 to 0.2,0.03 to 0.05,0.03 to 0.05,0.03 to 0.05,0.03 to 0.05,C=CC(=O)Nc1cc2c(Nc3ccc4c(cnn4Cc4cccc(F)c4)c3)ncnc2cc1OCCN1CCCCC1 [compound 8],,
0.01 to 0.02,0.01 to 0.02,0.1 to 0.2,0.1 to 0.2,0.03 to 0.05,0.03 to 0.05,≤ 0.006,< 0.005,< 0.005,,,,,,,C=CC(=O)Nc1cc2c(Nc3ccc4c(cnn4Cc4cccc(F)c4)c3)ncnc2cc1OCCCN1CC2CC1CO2 (stereo not drawn) [compound 6],,
0.1 to 0.2,0.1 to 0.2,> 1,> 1,0.03 to 0.05,0.03 to 0.05,,0.02 to 0.03,0.02 to 0.03,,,,,,,C=CC(=O)Nc1cc2c(Nc3ccc4c(cnn4Cc4cccc(F)c4)c3)ncnc2cc1N(C)CCN1CCOCC1 [compound 2],,
0.02 to 0.03,0.02 to 0.03,0.1 to 0.2,0.1 to 0.2,0.02 to 0.03,0.02 to 0.03,≤ 0.006,< 0.005,< 0.005,0.05 to 0.1,0.05 to 0.1,0.03 to 0.05,0.03 to 0.05,0.03 to 0.05,0.03 to 0.05,C=CC(=O)Nc1cc2c(Nc3ccc4c(cnn4Cc4cccc(F)c4)c3)ncnc2cc1OCCN(C)C [compound 10],,
0.1 to 0.2,0.1 to 0.2,0.5 to 1,0.5 to 1,0.03 to 0.05,0.03 to 0.05,≤ 0.02,0.01 to 0.02,0.01 to 0.02,,,,,,,C=CC(=O)Nc1cc2c(Nc3ccc4c(cnn4Cc4cccc(F)c4)c3)ncnc2cc1N(C)CCCN1CCOCC1 [compound 4],,
